“And” between values parts separate entries of the source, which are not always exact repeats. Equal values may be shown once. Read-outs that look alike come from different tables or passages of the source.
Key:
CHEK2 = biological target: T1, CHEK2 (Homo sapiens, UniProt O96017); test: KINOMEscan binding (% Ctrl, Kd)
T1 construct: made in house; host or cells: E. coli BL21-derived host (T7 phage) or HEK-293
Description: (§1) Briefly, E. coli host derived from the BL21 strain were grown to log-phase and infected with kinase-tagged T7 phage and incubated with shaking at 32°C until lysis. The lysates were centrifuged and filtered to remove cell debris. The remaining kinases were produced in HEK-293 cells and subsequently tagged with DNA for qPCR detection. Streptavidin-coated magnetic beads were treated with biotinylated small molecule ligands to generate affinity resins for kinase assays. The liganded beads were blocked with excess biotin and washed to remove unbound ligand and to reduce non-specific phage binding. […] Selectivity Score (S-score) was a quantitative measure of compound selectivity. […] The binding constants (Kds) were also determined with a standard dose-response curve using the Hill equation and Levenberg-Marquardt algorithm [24, 25].

MARK3 = biological target: T2, MARK3 (Homo sapiens, UniProt P27448); test: KINOMEscan binding (% Ctrl, Kd)
T2 construct: made in house; host or cells: E. coli BL21-derived host (T7 phage) or HEK-293
T2 sequence (P27448 whole entry): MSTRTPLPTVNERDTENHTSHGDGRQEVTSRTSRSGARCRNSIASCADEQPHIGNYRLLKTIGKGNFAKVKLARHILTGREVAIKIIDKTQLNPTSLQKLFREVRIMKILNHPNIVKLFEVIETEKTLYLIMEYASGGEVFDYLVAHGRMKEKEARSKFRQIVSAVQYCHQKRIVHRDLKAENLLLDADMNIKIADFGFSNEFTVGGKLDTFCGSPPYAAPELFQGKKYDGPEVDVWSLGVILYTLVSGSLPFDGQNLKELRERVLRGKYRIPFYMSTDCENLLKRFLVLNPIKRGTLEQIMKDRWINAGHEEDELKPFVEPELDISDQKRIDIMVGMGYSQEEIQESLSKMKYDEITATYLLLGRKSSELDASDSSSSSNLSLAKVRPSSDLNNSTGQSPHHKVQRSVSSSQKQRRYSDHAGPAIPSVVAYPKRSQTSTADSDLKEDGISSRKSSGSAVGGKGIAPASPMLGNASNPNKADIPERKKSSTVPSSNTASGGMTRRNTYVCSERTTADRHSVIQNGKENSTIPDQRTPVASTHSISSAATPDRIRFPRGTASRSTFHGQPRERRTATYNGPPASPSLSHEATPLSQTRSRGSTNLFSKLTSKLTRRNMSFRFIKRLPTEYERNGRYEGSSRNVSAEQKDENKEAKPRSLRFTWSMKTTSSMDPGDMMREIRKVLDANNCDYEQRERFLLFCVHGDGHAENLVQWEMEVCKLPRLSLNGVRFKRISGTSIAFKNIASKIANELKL
Description: as §1

CYP3A4 = test: CYP induction, in situ catalytic activity, human hepatocytes; assay type: in vitro ADME
CYP2B6 = biological target: T3, CYP2B6 (Homo sapiens, UniProt P20813); test: CYP inhibition in human liver microsomes; details: human liver microsomes
T3 sequence (P20813 1-491): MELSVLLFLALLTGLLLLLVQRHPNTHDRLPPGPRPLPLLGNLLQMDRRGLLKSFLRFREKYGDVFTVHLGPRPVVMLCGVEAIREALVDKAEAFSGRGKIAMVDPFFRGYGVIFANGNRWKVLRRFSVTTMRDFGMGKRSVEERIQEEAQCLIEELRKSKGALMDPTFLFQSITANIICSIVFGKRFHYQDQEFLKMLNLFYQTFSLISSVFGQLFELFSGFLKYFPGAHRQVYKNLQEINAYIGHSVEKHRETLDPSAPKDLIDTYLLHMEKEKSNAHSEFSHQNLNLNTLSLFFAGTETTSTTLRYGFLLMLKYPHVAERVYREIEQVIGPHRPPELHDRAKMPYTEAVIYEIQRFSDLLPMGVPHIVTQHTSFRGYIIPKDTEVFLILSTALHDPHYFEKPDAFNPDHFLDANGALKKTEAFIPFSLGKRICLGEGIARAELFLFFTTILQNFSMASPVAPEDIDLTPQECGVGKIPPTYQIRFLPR

cardiovascular effects = details: rats, up to 25 mg/kg ref 9; cited from earlier work
[1] = Stability in the absence of hepatocytes; details: no hepatocytes
Description: CYP3A4 substrate Midazolam (10 μM) was prepared and incubated in the same manner. […] In addition, in vitro half-life (t1/2, min) and intrinsic clearance (CLint, μl/min/10^6 cells) were calculated [10, 11].

CYP2C19 = CYP2C19 (Homo sapiens, UniProt P33261); test: CYP inhibition in human liver microsomes; details: human liver microsomes
Chain of CYP2C19 (P33261 whole entry): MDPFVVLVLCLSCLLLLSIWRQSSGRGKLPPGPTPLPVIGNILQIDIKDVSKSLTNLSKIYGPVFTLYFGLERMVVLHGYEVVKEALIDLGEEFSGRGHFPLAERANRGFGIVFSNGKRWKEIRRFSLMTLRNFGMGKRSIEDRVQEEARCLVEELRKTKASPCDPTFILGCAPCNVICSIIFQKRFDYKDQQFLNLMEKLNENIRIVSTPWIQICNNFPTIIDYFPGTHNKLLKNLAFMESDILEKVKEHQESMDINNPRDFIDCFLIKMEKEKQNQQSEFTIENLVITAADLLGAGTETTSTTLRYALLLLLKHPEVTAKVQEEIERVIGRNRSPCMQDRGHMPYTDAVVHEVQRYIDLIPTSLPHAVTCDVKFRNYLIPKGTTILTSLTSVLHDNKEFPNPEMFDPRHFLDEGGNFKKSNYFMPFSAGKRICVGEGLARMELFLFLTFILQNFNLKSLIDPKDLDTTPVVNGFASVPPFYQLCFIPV

[2] = Phospholipidosis and steatosis, high content screening; assay type: cell-based; parameters: key to Cell count, Trend (↑↓) / Nuclear size, Trend (↑↓) / DNA structure, Trend (↑↓) / Phospholipidosis, Trend (↑↓) / Steatosis, Trend (↑↓): ↑: increasing trend of response; ↓: decreasing trend of response; details: human, HepG2 cells
HepG2 cells = test: as above; assay type: cell-based; parameters: key to Cell count, Trend (↑↓) / Nuclear size, Trend (↑↓) / DNA structure, Trend (↑↓) / Phospholipidosis, Trend (↑↓) / Steatosis, Trend (↑↓): ↑: increasing trend of response; ↓: decreasing trend of response
CYP1A2 = test: CYP induction, in situ catalytic activity, human hepatocytes; assay type: in vitro ADME
Excerpt: Rifampicin as a positive control and solvent (0.1% DMSO) vehicle control were also included. The acceptance criteria for CYP induction was ≥ 2-fold induction for significant CYP activity, while the acceptance criteria for CYP mRNA was ≥ 4-fold for significant CYP induction.

[3] = parameters: method as in PMID 31526003; details: rats, 10 mg/kg oral dose ref 8; cited from earlier work
[4] = 11-point curve 0.001 to 10 μM, read-out: binding constant (Kd)

T1 sequence (O96017 whole entry): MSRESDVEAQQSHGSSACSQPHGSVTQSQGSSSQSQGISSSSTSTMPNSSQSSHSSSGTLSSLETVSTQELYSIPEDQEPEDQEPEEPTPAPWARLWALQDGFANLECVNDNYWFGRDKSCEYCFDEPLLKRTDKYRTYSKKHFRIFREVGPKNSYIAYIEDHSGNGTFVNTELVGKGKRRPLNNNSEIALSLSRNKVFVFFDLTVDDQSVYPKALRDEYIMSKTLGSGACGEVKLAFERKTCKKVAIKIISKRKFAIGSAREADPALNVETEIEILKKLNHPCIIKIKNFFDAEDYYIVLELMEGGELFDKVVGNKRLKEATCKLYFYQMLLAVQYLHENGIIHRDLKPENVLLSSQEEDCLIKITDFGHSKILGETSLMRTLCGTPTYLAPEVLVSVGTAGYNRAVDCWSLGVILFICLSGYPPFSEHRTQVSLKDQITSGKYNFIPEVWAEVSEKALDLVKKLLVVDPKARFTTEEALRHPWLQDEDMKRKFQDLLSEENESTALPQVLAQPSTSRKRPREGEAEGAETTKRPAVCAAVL

CCc1cc(Cl)c(OC)c(N2CCN(CC(O)CCNC(=O)c3cc4ccccc4[nH]3)CC2)c1 (stereo not shown) [R-VK4-116, N-(4-(4-(3-chloro-5-ethyl-2-methoxyphenyl)piperazin-1-yl)-3-hydroxybutyl)-1H-indole-2-carboxamide]
Kd (CHEK2; [4]): > 10 µM | remaining binding at 1 µM (CHEK2; read-out: %Control): < 35% | remaining binding at 1 µM (CHEK2; read-out: Gene (S-score with % control): CHEK2): 19% | Kd (MARK3; [4]): > 10 µM | remaining binding at 1 µM (MARK3; read-out: %Control): < 35% | remaining binding at 1 µM (MARK3; read-out: Gene (S-score with % control): MARK3): 0% | CYP3A4 activity (CYP3A4; 0.01 to 10 μM): did not increase | Fold of Vehicle Control (CYP3A4 activity, testosterone-6β-hydroxylation) (CYP3A4; hepatocyte Lot 336, 0.01 µM): 0.96 fold | Testosterone-6β- Hydroxylation (CYP3A4; hepatocyte Lot 336, 0.01 µM): 9.1 pmol/min/106 cells | Fold of Vehicle Control (CYP3A4 activity, testosterone-6β-hydroxylation) (CYP3A4; hepatocyte Lot 336, 0.1 µM): 0.80 fold | Testosterone-6β- Hydroxylation (CYP3A4; hepatocyte Lot 336, 0.1 µM): 7.5 pmol/min/106 cells | Fold of Vehicle Control (CYP3A4 activity, testosterone-6β-hydroxylation) (CYP3A4; hepatocyte Lot 336, 1 µM): 0.66 fold | Testosterone-6β- Hydroxylation (CYP3A4; hepatocyte Lot 336, 1 µM): 6.3 pmol/min/106 cells | Fold of Vehicle Control (CYP3A4 activity, testosterone-6β-hydroxylation) (CYP3A4; hepatocyte Lot 336, 3 µM): 0.63 fold | Testosterone-6β- Hydroxylation (CYP3A4; hepatocyte Lot 336, 3 µM): 5.9 pmol/min/106 cells | Fold of Vehicle Control (CYP3A4 activity, testosterone-6β-hydroxylation) (CYP3A4; hepatocyte Lot 336, 5 µM): 0.64 fold | Testosterone-6β- Hydroxylation (CYP3A4; hepatocyte Lot 336, 5 µM): 6.1 pmol/min/106 cells | Fold of Vehicle Control (CYP3A4 activity, testosterone-6β-hydroxylation) (CYP3A4; hepatocyte Lot 336, 10 µM): 0.55 fold | Fold of Vehicle Control (CYP3A4 activity, testosterone-6β-hydroxylation) (CYP3A4; hepatocyte Lot 348B, 0.01 µM): 1.0 fold | Fold of Vehicle Control (CYP3A4 activity, testosterone-6β-hydroxylation) (CYP3A4; hepatocyte Lot 348B, 0.1 µM): 1.0 fold | Fold of Vehicle Control (CYP3A4 activity, testosterone-6β-hydroxylation) (CYP3A4; hepatocyte Lot 348B, 1 µM): 0.70 fold | Fold of Vehicle Control (CYP3A4 activity, testosterone-6β-hydroxylation) (CYP3A4; hepatocyte Lot 348B, 3 µM): 0.56 fold | Fold of Vehicle Control (CYP3A4 activity, testosterone-6β-hydroxylation) (CYP3A4; hepatocyte Lot 348B, 5 µM): 0.56 fold | Fold of Vehicle Control (CYP3A4 activity, testosterone-6β-hydroxylation) (CYP3A4; hepatocyte Lot 348B, 10 µM): 0.49 fold | Fold of Vehicle Control (CYP3A4 activity, testosterone-6β-hydroxylation) (CYP3A4; hepatocyte Lot 399, 0.01 µM): 1.0 fold | Testosterone-6β- Hydroxylation (CYP3A4; hepatocyte Lot 399, 0.01 µM): 58 pmol/min/106 cells | Fold of Vehicle Control (CYP3A4 activity, testosterone-6β-hydroxylation) (CYP3A4; hepatocyte Lot 399, 0.1 µM): 0.89 fold | Testosterone-6β- Hydroxylation (CYP3A4; hepatocyte Lot 399, 0.1 µM): 49 pmol/min/106 cells | Fold of Vehicle Control (CYP3A4 activity, testosterone-6β-hydroxylation) (CYP3A4; hepatocyte Lot 399, 1 µM): 0.45 fold | Testosterone-6β- Hydroxylation (CYP3A4; hepatocyte Lot 399, 1 µM): 25 pmol/min/106 cells | Fold of Vehicle Control (CYP3A4 activity, testosterone-6β-hydroxylation) (CYP3A4; hepatocyte Lot 399, 3 µM): 0.32 fold | Testosterone-6β- Hydroxylation (CYP3A4; hepatocyte Lot 399, 3 µM): 18 pmol/min/106 cells | Fold of Vehicle Control (CYP3A4 activity, testosterone-6β-hydroxylation) (CYP3A4; hepatocyte Lot 399, 5 µM): 0.30 fold | Testosterone-6β- Hydroxylation (CYP3A4; hepatocyte Lot 399, 5 µM): 16 pmol/min/106 cells | Fold of Vehicle Control (CYP3A4 activity, testosterone-6β-hydroxylation) (CYP3A4; hepatocyte Lot 399, 10 µM): 0.23 fold | Testosterone-6β- Hydroxylation (CYP3A4; hepatocyte Lot 399, 10 µM): 13 pmol/min/106 cells | CYP2B6 inhibition (CYP2B6; up to 100 μM): did not inhibit CYP significantly | activity at 20 min, 0.1 µM (CYP2B6; human, probe bupropion): 99.6 ± 7.5% | activity at 20 min, 0.3 µM (CYP2B6; human, probe bupropion): 90.9 ± 2.5% | activity at 20 min, 1 µM (CYP2B6; human, probe bupropion): 91.2 ± 1.4% | activity at 20 min, 3 µM (CYP2B6; human, probe bupropion): 99.8 ± 7.6% | activity at 20 min, 10 µM (CYP2B6; human, probe bupropion): 97.5 ± 6.6% | activity at 20 min, 30 µM (CYP2B6; human, probe bupropion): 89.3 ± 1.2% | activity at 20 min, 60 µM (CYP2B6; human, probe bupropion): 91 ± 0.7% | activity at 20 min, 100 µM (CYP2B6; human, probe bupropion): 97 ± 4.9% | potentiation of the cardiovascular effects of cocaine or oxycodone (cardiovascular effects): did not potentiate | % remaining Vs T = 0 min ([1]; 0.5 μM, 0 min): 100.0% | % remaining Vs T = 0 min ([1]; 0.5 μM, 30 min): 86.2% | % remaining Vs T = 0 min ([1]; 0.5 μM, 60 min): 81.6% | % remaining Vs T = 0 min ([1]; 0.5 μM, 90 min): 79.9% | % remaining Vs T = 0 min ([1]; 0.5 μM, 120 min): 78.4% | % remaining Vs T = 0 min ([1]; 10 μM, 0 min): 100.0% | % remaining Vs T = 0 min ([1]; 10 μM, 30 min): 92.9% | % remaining Vs T = 0 min ([1]; 10 μM, 60 min): 87.5% | % remaining Vs T = 0 min ([1]; 10 μM, 90 min): 87.9% | % remaining Vs T = 0 min ([1]; 10 μM, 120 min): 77.3% | CYP2C19 inhibition (CYP2C19; up to 100 μM): did not inhibit CYP significantly | activity at 20 min, 0.1 µM (CYP2C19; human, probe mephenytoin): 102 ± 4.6% | activity at 20 min, 0.3 µM (CYP2C19; human, probe mephenytoin): 96.2 ± 5% | activity at 20 min, 1 µM (CYP2C19; human, probe mephenytoin): 97.3 ± 2.2% | activity at 20 min, 3 µM (CYP2C19; human, probe mephenytoin): 95.9 ± 3.6% | activity at 20 min, 10 µM (CYP2C19; human, probe mephenytoin): 99.6 ± 3.3% | activity at 20 min, 30 µM (CYP2C19; human, probe mephenytoin): 96.7 ± 3.5% | activity at 20 min, 60 µM (CYP2C19; human, probe mephenytoin): 95 ± 5.4% | activity at 20 min, 100 µM (CYP2C19; human, probe mephenytoin): 99.7 ± 3.4% | AC50 ([2]; # AC50 greater than the maximum surviving concentration, (NS) = not statistically significant, read-out: Steatosis, AC50): > 100 µM | AC50 ([2]; read-out: Cell count, AC50): > 100 µM | AC50 ([2]; read-out: DNA structure, AC50): > 100 µM | AC50 ([2]; read-out: Nuclear size, AC50): > 100 µM | AC50 ([2]; read-out: Phospholipidosis, AC50): 10.7 µM | Phospholipidosis, Trend (↑↓) (HepG2 cells): ↑ | Steatosis, Trend (↑↓) (HepG2 cells): ↑ | Steatosis, MEC (HepG2 cells; (NS) = not statistically significant): 14.2 μM and 14.2 (NS) μM | CYP1A2 activity, Fold of Vehicle Control (CYP1A2; Lot 336, 0.01 µM): 0.96 fold | Phenacetin-O- deethylation (CYP1A2; Lot 336, 0.01 µM): 1.1 pmol/min/106 cells | CYP1A2 activity, Fold of Vehicle Control (CYP1A2; Lot 336, 0.1 µM): 0.96 fold | Phenacetin-O- deethylation (CYP1A2; Lot 336, 0.1 µM): 1.1 pmol/min/106 cells | CYP1A2 activity, Fold of Vehicle Control (CYP1A2; Lot 336, 1 µM): 1.2 fold | Phenacetin-O- deethylation (CYP1A2; Lot 336, 1 µM): 1.4 pmol/min/106 cells | CYP1A2 activity, Fold of Vehicle Control (CYP1A2; Lot 336, 3 µM): 1.5 fold | Phenacetin-O- deethylation (CYP1A2; Lot 336, 3 µM): 1.8 pmol/min/106 cells | CYP1A2 activity, Fold of Vehicle Control (CYP1A2; Lot 336, 5 µM): 1.6 fold | Phenacetin-O- deethylation (CYP1A2; Lot 336, 5 µM): 1.8 pmol/min/106 cells | CYP1A2 activity, Fold of Vehicle Control (CYP1A2; Lot 336, 10 µM): 1.5 fold | CYP1A2 activity, Fold of Vehicle Control (CYP1A2; Lot 348B, 0.01 µM): 0.92 fold | CYP1A2 activity, Fold of Vehicle Control (CYP1A2; Lot 348B, 0.1 µM): 0.91 fold | CYP1A2 activity, Fold of Vehicle Control (CYP1A2; Lot 348B, 1 µM): 0.99 fold | CYP1A2 activity, Fold of Vehicle Control (CYP1A2; Lot 348B, 3 µM): 1.1 fold | CYP1A2 activity, Fold of Vehicle Control (CYP1A2; Lot 348B, 5 µM): 1.1 fold | CYP1A2 activity, Fold of Vehicle Control (CYP1A2; Lot 348B, 10 µM): 1.1 fold | CYP1A2 activity, Fold of Vehicle Control (CYP1A2; Lot 399, 0.01 µM): 1.1 fold | Phenacetin-O- deethylation (CYP1A2; Lot 399, 0.01 µM): 8.8 pmol/min/106 cells | CYP1A2 activity, Fold of Vehicle Control (CYP1A2; Lot 399, 0.1 µM): 1.1 fold | Phenacetin-O- deethylation (CYP1A2; Lot 399, 0.1 µM): 9.4 pmol/min/106 cells | CYP1A2 activity, Fold of Vehicle Control (CYP1A2; Lot 399, 1 µM): 1.1 fold | Phenacetin-O- deethylation (CYP1A2; Lot 399, 1 µM): 9.3 pmol/min/106 cells | CYP1A2 activity, Fold of Vehicle Control (CYP1A2; Lot 399, 3 µM): 1.2 fold | Phenacetin-O- deethylation (CYP1A2; Lot 399, 3 µM): 9.8 pmol/min/106 cells | CYP1A2 activity, Fold of Vehicle Control (CYP1A2; Lot 399, 5 µM): 1.2 fold | Phenacetin-O- deethylation (CYP1A2; Lot 399, 5 µM): 10 pmol/min/106 cells | CYP1A2 activity, Fold of Vehicle Control (CYP1A2; Lot 399, 10 µM): 1.1 fold | Phenacetin-O- deethylation (CYP1A2; Lot 399, 10 µM): 9.0 pmol/min/106 cells | Cmax [3]: 454 nM
